One data set has as its system liver hepatocyte growth. The experiment in a line: Test (c): in vivo inhibition of TGFα-stimulated liver hepatocyte growth in male rats (BrdU uptake). As to conditions: for ED50: Rattus norvegicus, Hepatocyte, read-out: ED50 in Test (c), inhibition of liver hepatocyte proliferation. Details: species or system rat.
The next data set concerns KB cells. The data set is described as follows: Test (b): in vitro inhibition of growth of human naso-pharyngeal cancer cell line KB (EGF, MTT). It is filed as cell-based. As to conditions: 72 h, read-out: IC50 in Test (b), inhibition of KB cell growth. On the procedure:
(b) An in vitro assay which determines the ability of a test compound to inhibit the growth of the human naso-pharyngeal cancer cell line KB.
KB cells were seeded into wells at a density of 1×10^4 -1.5×10^4 cells per well and grown for 24 hours in DMEM supplemented with 5% FCS (charcoal-stripped). Cell growth was determined after incubation for 3 days by the extent of metabolism of MTT tetrazolium dye to furnish a bluish colour. Cell growth was then determined in the presence of EGF (10 ng/ml) or in the presence of EGF (10 ng/ml) and a test compound at a range of concentrations. An IC50 value could then be calculated.

For the next data set, the target named is T1, receptor tyrosine kinase (Homo sapiens, UniProt P00533).
T1 construct: The supernatant, containing solubilised receptor tyrosine kinase, was stored in liquid nitrogen; endogenous in cells; host or cells: A-431 cells (human vulval carcinoma), solubilised membrane fraction
T1 sequence (P00533 25-1210): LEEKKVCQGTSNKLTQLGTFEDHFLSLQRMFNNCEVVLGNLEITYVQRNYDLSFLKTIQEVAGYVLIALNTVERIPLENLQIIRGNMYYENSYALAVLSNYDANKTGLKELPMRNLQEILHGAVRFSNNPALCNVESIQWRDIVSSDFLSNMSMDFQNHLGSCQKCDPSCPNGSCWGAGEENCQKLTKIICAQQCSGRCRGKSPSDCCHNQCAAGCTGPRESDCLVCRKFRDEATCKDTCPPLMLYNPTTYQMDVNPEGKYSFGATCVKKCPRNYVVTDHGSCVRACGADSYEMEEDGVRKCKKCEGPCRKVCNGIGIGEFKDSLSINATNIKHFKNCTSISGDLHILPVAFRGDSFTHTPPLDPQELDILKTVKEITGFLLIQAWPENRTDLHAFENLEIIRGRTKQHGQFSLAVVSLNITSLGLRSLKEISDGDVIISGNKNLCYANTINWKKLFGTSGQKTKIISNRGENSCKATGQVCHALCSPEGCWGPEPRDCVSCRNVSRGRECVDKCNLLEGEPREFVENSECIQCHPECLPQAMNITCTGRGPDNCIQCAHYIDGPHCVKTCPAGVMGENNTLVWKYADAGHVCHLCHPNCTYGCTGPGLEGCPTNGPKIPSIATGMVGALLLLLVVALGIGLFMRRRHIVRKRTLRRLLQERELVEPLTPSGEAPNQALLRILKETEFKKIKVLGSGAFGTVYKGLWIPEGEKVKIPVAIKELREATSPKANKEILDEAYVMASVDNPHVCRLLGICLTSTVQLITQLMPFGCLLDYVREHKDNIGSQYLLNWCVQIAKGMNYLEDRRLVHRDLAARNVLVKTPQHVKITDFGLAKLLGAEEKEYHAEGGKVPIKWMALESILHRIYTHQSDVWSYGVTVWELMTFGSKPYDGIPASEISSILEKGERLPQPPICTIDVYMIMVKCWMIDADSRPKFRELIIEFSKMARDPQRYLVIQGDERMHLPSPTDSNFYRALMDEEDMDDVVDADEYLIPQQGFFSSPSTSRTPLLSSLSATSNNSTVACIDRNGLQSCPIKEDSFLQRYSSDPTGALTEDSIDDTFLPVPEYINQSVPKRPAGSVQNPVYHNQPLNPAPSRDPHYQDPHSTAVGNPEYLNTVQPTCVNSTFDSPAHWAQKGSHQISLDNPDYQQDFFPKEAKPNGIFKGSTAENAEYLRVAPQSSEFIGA
T1 sequence (P01133 971-1023 partner limits assumed): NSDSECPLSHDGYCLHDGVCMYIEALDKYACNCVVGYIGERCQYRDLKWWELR
The experiment in a line: Test (a): in vitro receptor tyrosine kinase inhibition (enzyme from A-431 cells, 32P-ATP/peptide phosphorylation, with EGF). It is filed as biochemical. On the procedure: A-431 cells were grown to confluence using Dulbecco's modified Eagle's medium (DMEM) containing 5% fetal calf serum (FCS). The obtained cells were homogenised in a hypotonic borate/EDTA buffer at pH 10.1. The homogenate was centrifuged at 400 g for 10 minutes at 0°-4° C. The supernatant was centrifuged at 25,000 g for 30 minutes at 0°-4° C. The pelleted material was suspended in 30 mM Hepes buffer at pH 7.4 containing 5% glycerol, 4 mM benzamidine and 1% Triton X-100, stirred for 1 hour at 0°-4° C., and recentrifuged at 100,000 g for 1 hour at 0°-4° C. The supernatant, containing solubilised receptor tyrosine kinase, was stored in liquid nitrogen.
For test purposes 40 μl of the enzyme solution so obtained was added to a mixture of 400 μl of a mixture of 150 mM Hepes buffer at pH 7.4, 500 μM sodium orthovanadate, 0.1% Triton X-100, 10% glycerol, 200 μl water, 80 μl of 25 mM DTT and 80 μl of a mixture of 12.5 mM manganese chloride, 125 mM magnesium chloride and distilled water. There was thus obtained the test enzyme solution. […]
The test compound/EGF mixture solution (5 μl) was added to the test enzyme solution (10 μl) and the mixture was incubated at 0°-4° C. for 30 minutes. […] Radioactivity present in the filter paper was measured using a liquid scintillation counter (Sequence A). […]
Receptor tyrosine kinase inhibition was calculated as follows: [formula]

Data set [1] concerns human mammary carcinoma which expresses epidermal growth factor (EGF) receptor tyrosine kinase. The settings on record: athymic nude mice; Toi et al., 1990; cited from earlier work.
Data set [2] concerns carcinoma which does not express EGF receptor tyrosine kinase. The settings on record: Toi et al., 1990; cited from earlier work.
The mark [3] stands for this setting: male rats, usually oral, TGFα 400 μg/kg subcutaneously, BrdU uptake.

pIC50: −log10 of the molar value. Read-outs that look alike come from different tables or passages of the source.

Protocol for liver hepatocyte growth: (c) An in vivo assay in a group of male rats which determines the ability of a test compound (usually administered orally as a ball-milled suspension in 0.5% polysorbate) to inhibit the stimulation of liver hepatocyte growth caused by the administration of the growth factor TGFα (400 μg/kg subcutaneously, usually dosed twice, 3 and 7 hours respectively after the administration of the test compound).
Cell-growth in the control and test animals is determined as follows:
On the morning of the day after the dosing of the test compound (or 0.5% polysorbate in the control group), the animals are dosed with bromodeoxyuridine (BrdU; 100 mg/kg intraperitoneally). The animals are killed four hours later and the livers are excised. […] Further tests were carried out using a range of doses of the test compounds to allow the calculation of an approximate ED50 value for the inhibition of liver hepatocyte proliferation as determined by inhibition of the uptake of BrdU.

The term pIC50 denotes the IC50 on a negative log10 scale, so that one unit is a factor of ten. For the compound `COc1cc2ncnc(Nc3ccc4c(c3)CCC4)c2cc1OC` [6,7-dimethoxy-4-(5-indanylamino)quinazoline], the ED50 in the data set on liver hepatocyte growth (po) fell in the range of 1 to 5 mg/kg. Further, in the data set with KB cells, the pIC50 was 6.19.

Take `COc1cc2ncnc(Nc3ccc4[nH]ccc4c3)c2cc1OC` [6,7-dimethoxy-4-(5-indolylamino)quinazoline]: the pIC50 against receptor tyrosine kinase is 9.00; with KB cells (EGF (10 ng/ml), 3 days, MTT), 6.40. Besides, the ED50 with liver hepatocyte growth (setting [3]) was 1 to 5 mg/kg.

For the compound `COc1cc2ncnc(Nc3cccc4ncccc34)c2cc1OC` [6,7-dimethoxy-4-(5-quinolylamino)quinazoline], the pIC50 was 7.22 on receptor tyrosine kinase and 5.74 in the data set on KB cells (EGF (10 ng/ml), 3 days, MTT). In addition, the ED50 in the data set with liver hepatocyte growth (setting [3]) is approximately 2 mg/kg.

Take `O=CN/C=C/c1cc(O)ccc1O` [erbstatin]: the “effect on growth of transplanted human mammary carcinoma expressing EGF receptor tyrosine kinase” value in data set [1] is on record as “specifically attenuates the growth”. Also, the “effect on growth of another carcinoma which does not express EGF receptor tyrosine kinase” value in data set [2] was “without effect”.

Regarding “TGFα: the growth factor TGFα [reference compound]”, in the data set with liver hepatocyte growth (control group of rats, TGFα 400 μg/kg subcutaneously, on average), the “stimulation of liver hepatocyte growth” value is reported as 5 fold.

(Values after patent publication US5580870A, “Quinazoline derivatives” (Zeneca Limited, priority 1992, dated 1996).)
